US20120214862A1, “MODULATION OF FACTOR 7 EXPRESSION” (ISIS Pharmaceuticals, Inc., priority 2009, published 2012)
In the oligonucleotide strings, read from the 5' end, every base follows the letter of its sugar. An asterisk marks phosphorothioate; unmarked linkages are phosphodiester. Other units and linkages are bracketed, terminal groups are in braces. A string of capitals states the bases alone. e = 2'-O-(2-methoxyethyl) (MOE); [5mC] = 5-methylcytosine; d = 2'-deoxy (DNA)

The substances below were run on human Factor 7 mRNA (assay: Antisense inhibition of human Factor 7 mRNA in HepB3 cells, lipofectin, 50 nM, real-time RT-PCR). Settings: Example 4; HepB3 cells, lipofectin, 50 nM, ~24 h, relative to untreated control.
Type: cell-based
How it was run: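 Seeding density was 4,000 cells per well. Following roughly 24 hours of oligonucleotide treatment, RNA was extracted and Factor 7 message quantified using the RTS 2927 primer probe set. Levels were corrected for RIBOGREEN® total RNA and expressed against untreated controls.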

Question: Which “% Inhibition (human Factor 7 mRNA)” value does the source give for “422117 (antisense eG*eG*eA*eA*eG*dA*dA*dG*dG*dG*dA*d[5mC]*dG*dG*dA*eA*eG*eG*eT*eG) [compound 422117]” here?
Answer: The value was 1%.

Question: For “422118 (antisense e[5mC]*eG*eG*eA*eA*dG*dA*dA*dG*dG*dG*dA*d[5mC]*dG*dG*eA*eA*eG*eG*eT) [compound 422118]”, which “% Inhibition (human Factor 7 mRNA)” value is on record?
Answer: The value was 15%.

Question: “422119 (antisense eG*e[5mC]*eG*eG*eA*dA*dG*dA*dA*dG*dG*dG*dA*d[5mC]*dG*eG*eA*eA*eG*eG) [compound 422119]” was tested. Which “% Inhibition (human Factor 7 mRNA)” value did it give?
Answer: The value was 39%.

Same assay, conditions: HepB3 cells; gapmers targeted to nucleobases 11830 to 11869 of SEQ ID NO: 1 (Table 9)

Question: “422102 (antisense e[5mC]*eT*eG*eA*eG*dG*dA*dG*dA*d[5mC]*dA*dA*dT*dG*dG*eT*e[5mC]*eA*eG*eG) [compound 422102]” was tested. Which “% Inhibition of human Factor 7 mRNA levels” value did it give?
Answer: The value was 62%.

Question: Which “% Inhibition of human Factor 7 mRNA levels” value does the source give for “422103 (antisense eG*e[5mC]*eT*eG*eA*dG*dG*dA*dG*dA*d[5mC]*dA*dA*dT*dG*eG*eT*e[5mC]*eA*eG) [compound 422103]” here?
Answer: The value was 38%.

Question: Which “% Inhibition of human Factor 7 mRNA levels” value does the source give for “422104 (antisense eG*eG*e[5mC]*eT*eG*dA*dG*dG*dA*dG*dA*d[5mC]*dA*dA*dT*eG*eG*eT*e[5mC]*eA) [compound 422104]” here?
Answer: The value was 59%.

Question: How did the “% Inhibition of human Factor 7 mRNA levels” value turn out when “422105 (antisense eT*eG*eG*e[5mC]*eT*dG*dA*dG*dG*dA*dG*dA*d[5mC]*dA*dA*eT*eG*eG*eT*e[5mC]) [compound 422105]” was run?
Answer: Its value is 60%.

Question: “422106 (antisense e[5mC]*eT*eG*eG*e[5mC]*dT*dG*dA*dG*dG*dA*dG*dA*d[5mC]*dA*eA*eT*eG*eG*eT) [compound 422106]” was tested. Which “% Inhibition of human Factor 7 mRNA levels” value did it give?
Answer: Its value is 32%.

Question: For “422107 (antisense eG*e[5mC]*eT*eG*eG*d[5mC]*dT*dG*dA*dG*dG*dA*dG*dA*d[5mC]*eA*eA*eT*eG*eG) [compound 422107]”, which “% Inhibition of human Factor 7 mRNA levels” value is on record?
Answer: The value was 36%.

Same assay, conditions: HepB3 cells; gapmers targeted to nucleobases 13760 to 13789 of SEQ ID NO: 1 (Table 10)

Question: How did the “% Inhibition of human Factor 7 mRNA levels” value turn out when “422108 (antisense e[5mC]*e[5mC]*eG*e[5mC]*e[5mC]*dG*dG*d[5mC]*dT*d[5mC]*dT*dG*d[5mC]*dT*d[5mC]*eA*eT*e[5mC]*e[5mC]*e[5mC]) [compound 422108]” was run?
Answer: Its value is 69%.

Question: For “422109 (antisense e[5mC]*e[5mC]*e[5mC]*eG*e[5mC]*d[5mC]*dG*dG*d[5mC]*dT*d[5mC]*dT*dG*d[5mC]*dT*e[5mC]*eA*eT*e[5mC]*e[5mC]) [compound 422109]”, which “% Inhibition of human Factor 7 mRNA levels” value is on record?
Answer: Its value is 68%.

Question: “422110 (antisense eA*e[5mC]*e[5mC]*e[5mC]*eG*d[5mC]*d[5mC]*dG*dG*d[5mC]*dT*d[5mC]*dT*dG*d[5mC]*eT*e[5mC]*eA*eT*e[5mC]) [compound 422110]” was tested. Which “% Inhibition of human Factor 7 mRNA levels” value did it give?
Answer: Its value is 53%.

Question: How did the “% Inhibition of human Factor 7 mRNA levels” value turn out when “422111 (antisense e[5mC]*eA*e[5mC]*e[5mC]*e[5mC]*dG*d[5mC]*d[5mC]*dG*dG*d[5mC]*dT*d[5mC]*dT*dG*e[5mC]*eT*e[5mC]*eA*eT) [compound 422111]” was run?
Answer: Its value is 37%.

Question: For “422112 (antisense e[5mC]*e[5mC]*eA*e[5mC]*e[5mC]*d[5mC]*dG*d[5mC]*d[5mC]*dG*dG*d[5mC]*dT*d[5mC]*dT*eG*e[5mC]*eT*e[5mC]*eA) [compound 422112]”, which “% Inhibition of human Factor 7 mRNA levels” value is on record?
Answer: The value was 61%.

Question: Which “% Inhibition of human Factor 7 mRNA levels” value does the source give for “422113 (antisense eG*e[5mC]*e[5mC]*eA*e[5mC]*d[5mC]*d[5mC]*dG*d[5mC]*d[5mC]*dG*dG*d[5mC]*dT*d[5mC]*eT*eG*e[5mC]*eT*e[5mC]) [compound 422113]” here?
Answer: Its value is 68%.

Question: How did the “% Inhibition of human Factor 7 mRNA levels” value turn out when “422114 (antisense e[5mC]*eG*e[5mC]*e[5mC]*eA*d[5mC]*d[5mC]*d[5mC]*dG*d[5mC]*d[5mC]*dG*dG*d[5mC]*dT*e[5mC]*eT*eG*e[5mC]*eT) [compound 422114]” was run?
Answer: Its value is 50%.

Question: With “422115 (antisense eG*e[5mC]*eG*e[5mC]*e[5mC]*dA*d[5mC]*d[5mC]*d[5mC]*dG*d[5mC]*d[5mC]*dG*dG*d[5mC]*eT*e[5mC]*eT*eG*e[5mC]) [compound 422115]” as the substance, how does the “% Inhibition of human Factor 7 mRNA levels” value read?
Answer: The value was 66%.

Question: With “422116 (antisense eT*eG*e[5mC]*eG*e[5mC]*d[5mC]*dA*d[5mC]*d[5mC]*d[5mC]*dG*d[5mC]*d[5mC]*dG*dG*e[5mC]*eT*e[5mC]*eT*eG) [compound 422116]” as the substance, how does the “% Inhibition of human Factor 7 mRNA levels” value read?
Answer: Its value is 52%.
